According to article doi:10.1101/2024.12.20.629780v2 (bioRxiv, 2024):
Ends that are not written are not given here.

Tested on: S. aureus ATCC 12600
Assay: Peritonitis/sepsis mouse model
Assay type: in vivo, CD-1 mice
Conditions: at the tested dose

Row | Compound | Body weight change, peritonitis/sepsis model
1 | FRWWLYKRALAATTIKIKRRK [Turingcin-46] | no significant changes in body weight

Same assay, conditions: peritoneal lavage, log10 CFU, n = 9 per group

Row | Compound | Slope of intracellular versus extracellular bacterial loads (linear regression)
2 | CNC(C)C1CCC(N)C(OC2C(N)CC(N)C(OC3OCC(C)(O)C(NC)C3O)C2O)O1 (stereo not shown) [gentamicin, reference compound] | 1.37

Tested on: not listed separately
Assay: Resistance to proteolytic degradation in human serum
Assay type: in vitro ADME
Conditions: 25% human serum in water

Row | Compound | remaining at 1 h, 7 mg mL-1 [%]
3 | FRWWLYKRALAATTIKIKRRK [Turingcin-46] | ~50

Tested on: S. aureus ATCC 12600
Assay: Skin abscess infection mouse model
Assay type: in vivo, CD-1 mice
Conditions: general indicator of potential toxicity

Row | Compound | Body weight change, skin abscess model
4 | FRWWLYKRALAATTIKIKRRK [Turingcin-46] | no significant changes in body weight

Tested on: not listed separately
Assay: Solubility in autoclaved deionized water
Assay type: physicochemical
Conditions: not given

Row | Compound | Solubility in autoclaved deionized water
5 | ARWWLYKRALAATTIKIKRRK [F1A-Turingcin-46] | Soluble
6 | FAWWLYKRALAATTIKIKRRK [R2A-Turingcin-46] | Soluble
7 | FRWWAYKRALAATTIKIKRRK [L5A-Turingcin-46] | Soluble
8 | FRWWLYARALAATTIKIKRRK [K7A-Turingcin-46] | Soluble
9 | FRWWLYKRAAAATTIKIKRRK [L10A-Turingcin-46] | Soluble
10 | FRWWLYKRALAATTAKIKRRK [I15A-Turingcin-46] | Soluble
11 | FRWWLYKRALAATTIAIKRRK [K16A-Turingcin-46] | Soluble
12 | FRWWLYKRALAATTIKAKRRK [I17A-Turingcin-46] | Soluble
13 | FRWWLYKRALAATTIKIARRK [K18A-Turingcin-46] | Soluble
14 | FRWWLYKRALAATTIKIKRRA [K21A-Turingcin-46] | Soluble
15 | FRWWLYKRALAATTIKIKRRK [Turingcin-46] | Soluble
16 | KILIRKILTIIERKLLRSNLKS [Turingcin-12] | Soluble
17 | KIWKIKILRINKKTSSIIA [Turingcin-14] | Soluble
18 | KKRVYRQKIRLIKKAIFFKKR [Turingcin-18] | Soluble
19 | KKVWYIKVKLALALIKNI [Turingcin-3] | Soluble
20 | KLRSSKKIFQIAAKFNKLFRRK [Turingcin-26] | Soluble

Row | Compound | Solubility in autoclaved deionized water
21 | KMWKLRIKLTI [Turingcin-13] | Soluble
22 | KQIKQRSIRIKIFKKIL [Turingcin-24] | Soluble
23 | KRIKILRKYKWNQQYKKKL [Turingcin-16] | Soluble
24 | KRRAARIKQLRFIQQSLREERIIQKLIK [Turingcin-6] | Soluble
25 | LIWRRKIFRIKLRI [Turingcin-17] | Soluble
26 | QRRVLRFKLNTKIARLINLNI [Turingcin-27] | Soluble
27 | RIINIILNRNLKKIILAAAIRNAIRW [Turingcin-22] | Soluble
28 | RILRKVWTAWLREAALTIKVKR [Turingcin-9] | Soluble
29 | RILRKWSNWWWNNWLIWK [Turingcin-28] | Soluble
30 | RLIKAILNRVWKAWAIQKK [Turingcin-2] | Soluble
31 | RRLNSKINLYLRIIIALINK [Turingcin-20] | Soluble
32 | RVWKTLRIKVYFARRKQR [Turingcin-25] | Soluble
33 | RWWYTSIIKKKLNKIIA [Turingcin-11] | Soluble
34 | SRKYRQLAKYIWRNLANKNRLIIKA [Turingcin-15] | Soluble
35 | VMRRFFRLLRKIKL [Turingcin-23] | Soluble
36 | WAVKSSRIIYTLLRKLKTWFNIKAK [Turingcin-8] | Soluble

Results, then the compound that gave them:

Row | Solubility in autoclaved deionized water | Compound
37 | Soluble | FRAWLYKRALAATTIKIKRRK [W3A-Turingcin-46]
38 | Soluble | FRWALYKRALAATTIKIKRRK [W4A-Turingcin-46]
39 | Soluble | FRWWLAKRALAATTIKIKRRK [Y6A-Turingcin-46]
40 | Soluble | FRWWLYKAALAATTIKIKRRK [R8A-Turingcin-46]
41 | Soluble | FRWWLYKRALAAATIKIKRRK [T13A-Turingcin-46]
42 | Soluble | FRWWLYKRALAATAIKIKRRK [T14A-Turingcin-46]
43 | Soluble | FRWWLYKRALAATTIKIKARK [R19A-Turingcin-46]
44 | Soluble | FRWWLYKRALAATTIKIKRAK [R20A-Turingcin-46]
45 | Insoluble | ILARLSSILKLI [Turingcin-4]
46 | Insoluble | KILWYRIILIRFQKVW [Turingcin-5]
47 | Soluble | KKIIIKFLIFNTKL [Turingcin-19]
48 | Soluble | RLKSILLLIVTKINIRLKIA [Turingcin-7]
49 | Soluble | RRWVHKILLIIIKILA [Turingcin-1]
50 | Soluble | RYIRLLVILKLA [Turingcin-10]
51 | Insoluble | WYLIRVALIAFKKA [Turingcin-21]

Tested on: PMA-differentiated human monocytes (THP-1)
Assay: MTT cytotoxicity assay
Assay type: cell-based
Conditions: Ala-scan

Row | Compound | Cytotoxicity in PMA-differentiated THP-1 cells relative to Turingcin-46
52 | FRWALYKRALAATTIKIKRRK [W4A-Turingcin-46] | reduced cytotoxicity
53 | FRWWAYKRALAATTIKIKRRK [L5A-Turingcin-46] | reduced cytotoxicity
54 | FRWWLYKRALAATTIKIKRAK [R20A-Turingcin-46] | reduced cytotoxicity
55 | FRWWLYKRALAATTIKIKRRA [K21A-Turingcin-46] | reduced cytotoxicity
